Results as given in patent US12103920B2, “Cereblon binding compounds, compositions thereof, and methods of treatment therewith” (Celgene Corporation, priority 2020, dated 2024).
Where a name gives a salt, the structure may show the parent alone.

Target: T1, AR protein in VCaP cells (Homo sapiens, UniProt P10275)
T1 construct: endogenous in cells; host or cells: VCaP cells
T1 sequence (P10275 1-920): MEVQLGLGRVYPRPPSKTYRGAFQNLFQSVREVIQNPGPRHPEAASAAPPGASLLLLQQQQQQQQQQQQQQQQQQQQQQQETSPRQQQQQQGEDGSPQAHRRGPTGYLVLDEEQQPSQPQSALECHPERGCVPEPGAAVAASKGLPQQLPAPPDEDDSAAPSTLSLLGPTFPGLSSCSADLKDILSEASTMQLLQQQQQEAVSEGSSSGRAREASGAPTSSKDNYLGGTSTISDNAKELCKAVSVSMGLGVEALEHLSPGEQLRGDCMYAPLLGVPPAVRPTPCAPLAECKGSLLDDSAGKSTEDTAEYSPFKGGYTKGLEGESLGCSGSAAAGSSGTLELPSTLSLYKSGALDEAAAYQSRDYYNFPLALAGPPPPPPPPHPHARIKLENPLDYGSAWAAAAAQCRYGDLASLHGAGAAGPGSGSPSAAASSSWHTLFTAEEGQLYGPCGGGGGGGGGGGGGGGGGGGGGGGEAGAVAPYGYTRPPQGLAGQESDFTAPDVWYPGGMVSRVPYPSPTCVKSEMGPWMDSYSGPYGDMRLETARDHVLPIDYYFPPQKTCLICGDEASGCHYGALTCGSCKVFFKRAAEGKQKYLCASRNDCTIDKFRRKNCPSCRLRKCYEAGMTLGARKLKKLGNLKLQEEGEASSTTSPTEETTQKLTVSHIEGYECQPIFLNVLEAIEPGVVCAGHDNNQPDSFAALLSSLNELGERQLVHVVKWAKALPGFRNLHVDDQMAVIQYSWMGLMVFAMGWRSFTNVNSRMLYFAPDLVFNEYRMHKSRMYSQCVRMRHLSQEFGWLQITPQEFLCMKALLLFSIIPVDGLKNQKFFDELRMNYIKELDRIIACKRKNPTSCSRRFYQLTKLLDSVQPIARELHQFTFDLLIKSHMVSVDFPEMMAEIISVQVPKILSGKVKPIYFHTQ
Test: VCAP AR Degradation Assay
Format: cell-based
Settings: 24 h, AR ELISA; for DC50: concentration at 50% of DMSO control (50% AR degradation); for Y: lowest measured AR level normalized to DMSO control
Procedure: VCAP AR Degradation Assay. Test compounds were pre-dispensed into a Corning CellBind 96-well clear bottom plate (Cat #3300) using an acoustic dispenser to make a 10-point concentration series at 1:3 dilution for each compound. The final top concentration of each compound was 5 μM. DMSO at a final concentration of 0.1% was used as a control. VCaP cells cultured in DMEM with 8% fetal bovine serum (FBS) were seeded at 50K cells per well in a 200 μL volume into the compound plate and incubated at 37° C. in a CO2 incubator for 24 h. The medium was carefully removed from the cells and the plate was placed on ice. One hundred μL of ice-cold 1× cell lysis buffer from Cell Signaling Technologies (Cat #9803) was added to each well of the cells and the plate was incubated at 4° C. on a shaker for 1 h. Fifteen μL of cell lysate was used for AR ELISA detection using a PathScan Total Sandwich AR ELISA kit (Cell Signaling Technology, Cat #12580). AR levels in compound-treated wells were normalized to that of DMSO control and expressed as percent of control (PoC) (y). A Four Parameter Logistic Model (Sigmoidal Dose-Response Model) was used to determine the compound's DC50, and EC50, using the following equation: y=(A+((B−A)/(1+((C/x)^D)))) • A=YMin (lowest AR level normalized to DMSO control in response to compound treatment, as determined by curve fit) • B=YMax (maximum AR level as determined by curve fit) • C=EC50 • D=Hill Slope • x=compound concentration • EC50=the concentration of compound when y=(YMax−YMin)/2 • DC50=the concentration of the compound when y=50% of DMSO control (50% AR degradation) • y=AR protein level normalized to DMSO control
The lowest measured AR level normalized to DMSO control in response to compound treatment, termed Y value, was used to characterize the compound-mediated AR degradation efficiency.

## C[C@@H]1CN(CCC[C@H]2CC[C@H](N3C(=S)N(c4ccc(C#N)c(Cl)c4)C(=O)C3(C)C)CC2)C[C@H](C)N1CC(=O)Nc1cccc(NC2CCC(=O)NC2=O)c1 (stereo partly drawn) [Cmpd 14, 2-((2S,6R)-4-(3-(trans-4-(3-(3-Chloro-4-cyanophenyl)-5,5-dimethyl-4-oxo-2-thioxoimidazolidin-1-yl)cyclohexyl)propyl)-2,6-dimethylpiperazin-1-yl)-N-(3-((2,6-dioxopiperidin-3-yl)amino)phenyl)acetamide hydrochloride]
  DC50: 10 to 100 nM
  Y: *** (25%<Y<50%)

## C[C@@H]1C[C@@H](CCO[C@H]2CC[C@H](N3C(=S)N(c4ccc(C#N)c(C(F)(F)F)c4)C(=O)C3(C)C)CC2)C[C@H](C)N1CC(=O)Nc1cccc(NC2CCC(=O)NC2=O)c1 (stereo partly drawn) [Cmpd 15, 2-((2R,4s,6S)-4-(2-((trans-4-(3-(4-Cyano-3-(trifluoromethyl)phenyl)-5,5-dimethyl-4-oxo-2-thioxoimidazolidin-1-yl)cyclohexyl)oxy)ethyl)-2,6-dimethylpiperidin-1-yl)-N-(3-((2,6-dioxopiperidin-3-yl)amino)phenyl)acetamide hydrochloride]
  DC50: 5 to 10 nM
  Y: * (0<Y≤15%)

## C[C@@H]1C[C@H](CCO[C@H]2CC[C@H](N3C(=S)N(c4ccc(C#N)c(C(F)(F)F)c4)C(=O)C3(C)C)CC2)C[C@H](C)N1CC(=O)Nc1cccc(NC2CCC(=O)NC2=O)c1 (stereo partly drawn) [Cmpd 16, 2-((2R,4r,6S)-4-(2-((trans-4-(3-(4-Cyano-3-(trifluoromethyl)phenyl)-5,5-dimethyl-4-oxo-2-thioxoimidazolidin-1-yl)cyclohexyl)oxy)ethyl)-2,6-dimethylpiperidin-1-yl)-N-(3-((2,6-dioxopiperidin-3-yl)amino)phenyl)acetamide hydrochloride]
  DC50: 5 to 10 nM
  Y: * (0<Y≤15%)

## C[C@@H]1CN(CCCC[C@H]2CC[C@H](N3C(=S)N(c4ccc(C#N)c(C(F)(F)F)c4)C(=O)C3(C)C)CC2)C[C@H](C)N1CC(=O)Nc1cccc(NC2CCC(=O)NC2=O)c1 (stereo partly drawn) [Cmpd 17, 2-((2R,6S)-4-(4-(trans-4-(3-(4-Cyano-3-(trifluoromethyl)phenyl)-5,5-dimethyl-4-oxo-2-thioxoimidazolidin-1-yl)cyclohexyl)butyl)-2,6-dimethylpiperazin-1-yl)-N-(3-((2,6-dioxopiperidin-3-yl)amino)phenyl)acetamide hydrochloride]
  DC50: 10 to 100 nM
  Y: *** (25%<Y<50%)

## C[C@@H]1CN(CCC[C@H]2CC[C@H](N3C(=S)N(c4ccc(C#N)c(C(F)(F)F)c4)C(=O)C3(C)C)CC2)C[C@H](C)N1CC(=O)Nc1cccc(N[C@H]2CCC(=O)NC2=O)c1 [Cmpd 18, 2-((2R,6S)-4-(3-(trans-4-(3-(4-Cyano-3-(trifluoromethyl)phenyl)-5,5-dimethyl-4-oxo-2-thioxoimidazolidin-1-yl)cyclohexyl)propyl)-2,6-dimethylpiperazin-1-yl)-N-(3-(((S)-2,6-dioxopiperidin-3-yl)amino)phenyl)acetamide]
  DC50: 10 to 100 nM
  Y: ** (15%<Y≤20%)

## CC1(C)C(=O)N(c2ccc(C#N)c(C(F)(F)F)c2)C(=S)N1[C@H]1CC[C@H](OCCN2CCN(CC(=O)Nc3cccc(NC4CCC(=O)NC4=O)c3)[C@@H](C(F)(F)F)C2)CC1 (stereo partly drawn) [Cmpd 19, 2-((R)-4-(2-((trans-4-(3-(4-Cyano-3-(trifluoromethyl)phenyl)-5,5-dimethyl-4-oxo-2-thioxoimidazolidin-1-yl)cyclohexyl)oxy)ethyl)-2-(trifluoromethyl)piperazin-1-yl)-N-(3-((2,6-dioxopiperidin-3-yl)amino)phenyl)acetamide hydrochloride]
  DC50: 5 to 10 nM
  Y: * (0<Y≤15%)
